Data set [1] relates to c-Met. As to the kind of experiment: c-Met phosphorylation in EBC-1 cells by western blot. The format is cell-based. The note with it: 6 h. How it is done:
To analyze the effect of the compounds on c-Met phosphorylation, EBC-1 cells were seeded in six well plates and grown to 90% confluence. […] Cells were incubated with the compounds for 6 h at 37 °C in a CO2 incubator. After the incubation, western blot analysis was performed. To investigate GnRH-R protein level, cells were seeded in six well plates and grown to 90% confluence, then western blot analysis was applied.
Bands were visualized via Enhanced Chemiluminescence detection system (Western Lightning ECL Pro, PerkinElmer, Waltham, MA, USA, cat. no.: NEL122001EA).

A short description of data set [2]: pH-dependent artificial membrane permeability assay (PAMPA). Format: in vitro ADME. The note with it: PAMPA, pH 4.8. On the procedure: An artificial-membrane-based system (BD Gentest™ Pre-Coated PAMPA plate, Corning, cat. no.: 353015) was used to determine the pH-dependent membrane permeability of the compounds. In this method, the protocol provided by the manufacturer was followed with minor modifications. Four different pH values were applied per compound. […] Stock solutions of compounds in DMSO were diluted to 100 µM in each PBS. PBS solutions were loaded into the donor wells, but the acceptor wells were filled with physiological PBS (pH = 7.4). The system was gently shaken (BioSan Thermo-Shaker PST-60HL) for 5 h at 25 °C. […] Calculation formula and the calculated data are available in the Supplementary Information, Section S4. page 11: S4. PAMPA Calculation formula: −ln(1 − CaCe) Pe = 1 1 A ∗ (Vd + Va) ∗ t Ce = (Cd ∗ Vd + Ca∗ Va)/(Vd + Va) R = 1 − Cd ∗ Vd + Ca∗ Va C0 ∗ Vd Pe = permeability (cm/s) R = mass retention (percentage loss of compound due to non-specific binding to the plastic surfaces during the permeation assay) A = membrane area (cm2) c0 = initial donor concentration ca = final acceptor concentration cd = final donor concentration ce = equilibrium concentration t = incubation time (sec) Va = acceptor volume (mL) Vd = donor volume (mL)

The target of data set [3] is T1, recombinant c-Met kinase (Homo sapiens, UniProt P08581).
T1 construct: purchased ProQinase 0171-0000-1
T1 sequence (P08581 25-1390): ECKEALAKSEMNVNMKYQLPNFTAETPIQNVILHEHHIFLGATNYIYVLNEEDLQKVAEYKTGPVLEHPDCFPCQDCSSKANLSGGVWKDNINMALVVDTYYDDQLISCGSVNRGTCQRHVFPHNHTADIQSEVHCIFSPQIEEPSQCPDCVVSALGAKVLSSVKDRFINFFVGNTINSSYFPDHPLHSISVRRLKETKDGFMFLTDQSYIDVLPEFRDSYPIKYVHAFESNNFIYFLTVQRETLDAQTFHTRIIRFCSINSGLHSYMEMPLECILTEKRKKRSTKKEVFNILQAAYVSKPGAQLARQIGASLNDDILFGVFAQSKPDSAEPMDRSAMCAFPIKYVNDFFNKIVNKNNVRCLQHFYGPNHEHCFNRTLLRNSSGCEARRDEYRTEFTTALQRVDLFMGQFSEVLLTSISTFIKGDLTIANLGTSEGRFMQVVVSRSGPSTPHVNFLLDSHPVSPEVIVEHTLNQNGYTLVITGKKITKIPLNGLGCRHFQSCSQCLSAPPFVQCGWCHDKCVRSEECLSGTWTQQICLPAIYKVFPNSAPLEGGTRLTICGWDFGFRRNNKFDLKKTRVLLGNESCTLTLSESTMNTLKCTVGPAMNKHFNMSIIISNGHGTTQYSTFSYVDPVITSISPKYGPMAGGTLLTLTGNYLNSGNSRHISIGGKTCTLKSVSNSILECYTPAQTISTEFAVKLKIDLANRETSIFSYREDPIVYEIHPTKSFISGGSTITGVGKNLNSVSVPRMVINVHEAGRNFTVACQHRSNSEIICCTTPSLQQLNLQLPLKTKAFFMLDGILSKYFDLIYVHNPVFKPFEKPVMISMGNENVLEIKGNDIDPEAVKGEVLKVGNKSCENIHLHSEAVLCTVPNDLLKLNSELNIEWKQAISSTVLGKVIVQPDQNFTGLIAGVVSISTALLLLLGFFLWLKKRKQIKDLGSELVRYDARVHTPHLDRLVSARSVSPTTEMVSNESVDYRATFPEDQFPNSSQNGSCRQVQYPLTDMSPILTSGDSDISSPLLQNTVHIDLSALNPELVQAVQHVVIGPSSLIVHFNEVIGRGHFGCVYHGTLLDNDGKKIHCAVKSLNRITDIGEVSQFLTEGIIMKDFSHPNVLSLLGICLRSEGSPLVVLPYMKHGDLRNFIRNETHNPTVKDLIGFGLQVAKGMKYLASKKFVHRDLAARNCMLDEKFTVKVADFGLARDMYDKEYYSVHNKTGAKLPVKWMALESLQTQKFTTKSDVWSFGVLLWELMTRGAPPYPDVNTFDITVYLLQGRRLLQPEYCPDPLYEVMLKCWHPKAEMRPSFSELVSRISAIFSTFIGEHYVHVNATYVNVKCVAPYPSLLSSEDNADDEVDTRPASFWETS
As to the kind of experiment: In vitro inhibition of recombinant c-Met kinase (ADP-Glo). Format: biochemical. The note with it: recombinant kinase assay, ATP 3.1 µM. On the procedure:
Reaction buffer was prepared according to ProQinase’s recommendation [60 mM HEPES, 3 mM MgCl2, 3 mM MnCl2, 3 µM Na3VO4, 1.2 mM DTT (dithiothreitol), and 50 µg/mL PEG20,000, (reagents were obtained from Merck Millipore)]. Enzyme activity was assayed in 384 well, low-volume white microtiter plates (Corning®, Merck Millipore, cat. no.: CLS4513-50EA). Compounds were preincubated with c-Met kinase for 30 min at room temperature and reactions were started by adding the substrate–ATP mixture. Reaction time was 60 min at room temperature. Enzyme reaction was stopped using ADP-Glo™ Kinase Assay (Promega, cat. no.: V6930) according to the manufacturer’s instructions (40 min incubation with ADP-Glo™ Reagent, 30 min incubation with Kinase detection reagent at 25 °C). All measurements were performed using a Synergy 2 Multi-Mode Reader (BioTek, Winooski, VT, USA). Raw enzyme activity values were converted to relative activity data using positive and negative controls.

The test system of data set [4] is EBC-1 cells. As to the kind of experiment: Galectin puncta assay for lysosomal membrane permeabilization. Format: cell-based. The note with it: 8 h. On the procedure:
EBC-1 cells were seeded on eight well Ibidi® μ-Slide microscopic slides (2 × 10^4 cells/well) and allowed to adhere for 48 h. […] Untreated (0.2% DMSO in EMEM) cells were used as a negative control. Cells were incubated with the compounds for 8 h at 37 °C in a CO2 incubator. Cells were fixed with 4% paraformaldehyde for 10 min and washed twice with PBS (Lonza). Cells were permeabilized with 0.1% (v/v) Triton X-100 PBS solution for 10 min. After blocking (5% v/v BSA in PBS), cells were incubated with anti-galectin 3 (Merck, cat. no.: SAB4501746, dilution: 1:100) and anti-galectin-1 (Santa Cruz Biotechnology, cat. no.: sc-166618, dilution: 1:100) primary antibodies overnight at 25 °C, followed by Alexa-Fluor-488-conjugated (Jackson ImmunoResearch., cat. no.: 111-545-003, dilution: 1:500) and Alexa-Fluor-594-conjugated (Jackson ImmunoResearch, cat. no.: 115-585-003, dilution: 1:250) secondary antibodies for 1 h at 25 °C. DRAQ5 (10 µM) was added to the cells for 15 min. Cells were washed three times with PBS and a few drops of mounting media (Merck Millipore) were added. Images of cells were acquired with a confocal laser microscope (Zeiss Confocal LSM 710). [Objective: Plan-Apochromat 63x/1.40 Oil DIC M27. Pinhole: 1.01 AU. Laser wavelength: 488 nm, 543 nm and 633 nm. Detection wavelength: 504–539 nm; 602–651 nm; 694–758 nm)].

Data set [5] deals with EBC-1 NSCLC cells. As to the kind of experiment: CellTiter-Glo cell viability assay on EBC-1 cells. The format is cell-based. How it is done: EBC-1 cell line was obtained from the Japanese Collection of Research Bioresources Cell Bank (JCRB, Solana Beach, CA 92075 USA) and cultured in Eagle’s minimum essential medium (EMEM) (Lonza, Basel, Switzerland, cat. no.: BE12-611F,) supplemented with 1% MycoZap (Lonza, cat. no.: VZA-2012) and 10% fetal bovine serum (FBS) (Thermo Fisher Scientific, Waltham, MA, USA, cat. no.: 10500-064).
Effects of the synthesized compounds on EBC-1 and fibroblast cell viability was measured via CellTiter-Glo® luminescent cell viability assay (Promega, Madison, WI, USA) according to the manufacturer’s instructions. Briefly, cells were plated at 1000 cells/well onto a flat-bottomed, white 96 well plate (BRANDplates, cat. no.: 781965). After 24 h, cells were treated for 72 h with either the desired 4-fold serial diluted compound concentrations or vehicle (0.2% DMSO) control. After the treatment, the luminescence signal was recorded using a microplate reader (BioTek Synergy 2 Multi-Mode Reader, BioTek, Winooski, VT, USA). Dose–response curves (using a non-linear regression model) were generated and IC50 values were determined using Graph Pad Prism 5.02 software (GraphPad Software, San Diego, CA, USA).

For data set [6], the target named is T2, human pituitary GnRHR (Homo sapiens, UniProt P30968).
T2 construct: Normal human pituitary (anterior lobe) tissue was collected at autopsy; from tissue; host or cells: normal human pituitary (anterior lobe), autopsy tissue, membranes
T2 sequence (P30968 1-328): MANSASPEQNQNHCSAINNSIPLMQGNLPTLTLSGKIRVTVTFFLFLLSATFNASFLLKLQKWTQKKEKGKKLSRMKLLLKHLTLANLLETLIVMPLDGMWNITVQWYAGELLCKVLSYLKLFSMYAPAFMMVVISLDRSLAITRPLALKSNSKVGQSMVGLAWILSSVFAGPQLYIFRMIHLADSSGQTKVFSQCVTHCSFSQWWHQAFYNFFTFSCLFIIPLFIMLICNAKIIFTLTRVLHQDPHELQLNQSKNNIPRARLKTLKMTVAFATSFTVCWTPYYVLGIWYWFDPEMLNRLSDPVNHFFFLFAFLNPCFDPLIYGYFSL
As to the kind of experiment: Radioligand competition assay, [125I]-[D-Trp6]-GnRH-I displacement, human pituitary membranes. The note with it: inhibition of [125I]-[D-Trp6]-GnRH-I binding to membranes. How it is done:
(§1) The collection and use of the tissue samples for our studies were approved by the local Institutional Ethics Committee. Normal human pituitary (anterior lobe) tissue was collected at autopsy and the human prostate cancer specimen was obtained from a patient at the time of initial surgical treatment. The ligand competition assay was performed as described previously.

The target of data set [7] is T3, prostate cancer GnRHR (Homo sapiens, UniProt P30968).
T3 construct: the human prostate cancer specimen was obtained from a patient at the time of initial surgical treatment; from tissue; host or cells: human prostate cancer surgical specimen, membranes
T3 sequence (P30968 1-328): T2 sequence (P30968 1-328)
As to the kind of experiment: Radioligand competition assay, [125I]-[D-Trp6]-GnRH-I displacement, human prostate cancer membranes. The note with it: inhibition of [125I]-[D-Trp6]-GnRH-I binding to membranes. How it is done:
as §1

The test system of data set [8] is EBC-1 cells. As to the kind of experiment: Colocalization with lysosomes in EBC-1 cells by confocal microscopy. The format is cell-based. The note with it: 10 µM, 24 h. How it is done:
EBC-1 cells were seeded in eight well Ibidi® μ-Slide microscopic slides (2 × 10^4 cells/well) and allowed to adhere for 48 h. Cells were then treated with 10 µM [D-Lys^6(FITC)]–GnRH-I in complemented EMEM (Lonza) and incubated in a humidified, 5% CO2 atmosphere incubator for 24 h at 37 °C.
To investigate colocalization of [D-Lys^6(FITC)]–GnRH-I with lysosomes (in Figure 6), after [D-Lys^6(FITC)]–GnRH-I treatment (24 h, 10 µM), Lysoview 633 dye was added to the treating medium and the cells were incubated for a further 1 h. After incubation, cells were washed twice with EMEM. Images of the living cells were acquired with a Zeiss Confocal LSM 710 microscope [Objective: Plan-Apochromat 63×/1.40 Oil DIC M27. Pinhole: 1.95 AU. Laser wavelength: 488 nm and 633 nm. Detection wavelength: 496–573 nm; 633–693 nm)].

Data set [9] has as its system EBC-1 cells. As to the kind of experiment: Cellular uptake in EBC-1 cells by flow cytometry. The note with it: 0.1, 1, 10 µM; 2, 6, 24, 72 h. The format is cell-based. How it is done:
2 × 10^4 EBC-1 cells per well were seeded onto 24 well plates (VWR) and allowed to adhere for 48 h. Cells were treated with [D-Lys^6(FITC)]–GnRH-I in complemented EMEM (Lonza) at 0.1, 1, and 10 µM, and incubated in a humidified, 5% CO2 atmosphere incubator for 2, 6, 24, and 72 h at 37 °C.
After incubation, supernatant was discarded and the cells were washed twice with PBS (Lonza). Trypsin (Thermo Fisher Scientific, cat. no.: 25300062) was added for 10 min at 37 °C. Cells were pelleted (250× g, 4 min, 4 °C) in flow cytometry tubes, resuspended in 300 µL PBS and kept at 4 °C for the rest of the experiment. The fluorescence intensity of the conjugate-stained cells was analysed using a FACS Calibur flow cytometer (BD Biosciences, San Jose, CA) using channel FL1. Data were evaluated by CellQuest Pro software (BD Biosciences). The relative median fluorescent intensity (MFI) values (based on DMSO control) were calculated.
Calculation formula: relative MFI compound;xh;yµM=MFI compound;xh;yµM/MFI DMSO control;xh • x time (h) • y concentration (µM)

On the set-up of data set [10]: method as in PMID 10639165. The note with it: cited from earlier work.
Data set [11] deals with endometrial cancer. Further details: method as in https://clinicaltrials.gov. The note with it: phase III, ref https://clinicaltrials.gov; cited from earlier work.

As to `CC(C)C[C@H](NC(=O)[C@@H](CCCCNC(=O)CCCC(=O)N1CCC(n2cc(-c3cnc(N)c(OC(C)c4c(Cl)ccc(F)c4Cl)c3)cn2)CC1)NC(=O)[C@H](Cc1ccc(O)cc1)NC(=O)[C@H](CO)NC(=O)[C@H](Cc1c[nH]c2ccccc12)NC(=O)[C@H](Cc1c[nH]cn1)NC(=O)[C@@H]1CCC(=O)N1)C(=O)N[C@@H](CCCNC(=N)N)C(=O)N1CCC[C@H]1C(=O)NCC(N)=O` (mixture of isomers) [[D-Lys^6(crizotinib*)]–GnRH-I], the “inhibition of c-Met phosphorylation in EBC-1 cells” value is listed as “no significant inhibitory effect” in data set [1] (100 nM), “moderate” in data set [1] (1 µM) and “abolished” in data set [1] (10 µM). The PAMPA membrane permeability result in data set [2] is “not to be membrane-permeable”. Also, the IC50 turned out to be 163 nM in [3], 34.6 ± 4.2 nM in data set [6] and 39.5 ± 1.7 nM in [7]. The galectin puncta formation result in [4] (0.1 µM) was “negligable”; in [4] (1 µM), “clearly detectable”; in data set [4] (10 µM and 100 µM), “more and more significant”. The “viability inhibition effect on EBC-1 cells” value in [5] (highest 10 µM concentration) was “only a moderate effect”; in data set [5] (submicromolar range), “did not show any significant effect”.

For `CC(C)C[C@H](NC(=O)[C@@H](CCCCNC(=S)Nc1ccc2c(c1)C(=O)OC21c2ccc(O)cc2Oc2cc(O)ccc21)NC(=O)[C@H](Cc1ccc(O)cc1)NC(=O)[C@H](CO)NC(=O)[C@H](Cc1c[nH]c2ccccc12)NC(=O)[C@H](Cc1c[nH]cn1)NC(=O)[C@@H]1CCC(=O)N1)C(=O)N[C@@H](CCCNC(=N)N)C(=O)N1CCC[C@H]1C(=O)NCC(N)=O` [[D-Lys^6(FITC)]–GnRH-I], the “colocalization with lysosome marker Lysoview 633” value in data set [8] was “highly correlated”. In addition, the cellular uptake result in [9] is “concentration-dependent dynamic uptake”.

On to zoptarelin doxorubicin, for which the “half-life in human serum” value in [10] is reported as “approximately 2 h”. In addition, in [11], the “clinical outcome compared to doxorubicin” value is recorded as “could neither extend overall survival, nor improve the safety profile”.

The record behind these values is PMC6888004 (International Journal of Molecular Sciences, 2019).
